Values joined by “and” are separate entries in the source; they are usually repeats but may differ in a detail not shown here. Equal entries are not always repeated. Where two headings read alike, the source gives them in different places.
Columns and labels:
[1] = cited from earlier work; for Ray dose for the person examined: radiopharmaceuticals used up to now
[2] = system: neoplastic tissues (tumors and metastases); details: radiopharmaceuticals used up to now; cited from earlier work
[3] = Stability of the complexes; format: physicochemical; details: in solution
brain tumor [4] = details: cited from earlier work
brain tumor [5] = details: literature sources 1-2 of Table 2, cited from earlier work
[6] = in vivo, cited from earlier work

Q: For `COC(CNC(N)=O)[CH2][203Hg][Cl]` (stereo not drawn) [^203 Hg-chlormerodrin], which “Ray dose for the person examined” value [1] is on record?
A: Its value is “high ray dose”.

Q: What about the Tumor affinity [2] of the same compound?
A: The Tumor affinity was “low and uncertain tumor affinity”.

Q: With “tin-technetium-isocitrate complex [Example 1]” as the compound, how does the Stability of complex [3] read?
A: The Stability of complex was “stable”.

Q: For ^111 indium-citrate complex [Example 7], which Stability of complex [3] is on record?
A: Its Stability of complex is “stable”.

Q: Which results are given for `O=[75Se]([O-])[O-].[Na+].[Na+]` [^75 Se-sodium selenite]?
A: Ray dose for the person examined [1]: high ray dose; Tumor affinity [2]: low and uncertain tumor affinity

Q: Which “Human external tumor brain quotient (in vivo)” value (brain tumor [4]; literature sources 1-6 of Table 1) does the source give for `COC([CH2][197Hg+])CNC(N)=O.[Cl-]` (stereo not drawn) [197Hg-Chlormerodrin, ^197 Hg-chlormerodrin] here?
A: Its value is 1.2 - 8.7 : 1 and 1.2 - 3.1 : 1.

Q: And the “Ray dose of the critical organs: Kidney” value ([1]; Kidney, hitherto used substances)?
A: The value was 4370 - 19400 mrad/mCurie.

Q: And the “Ray dose for the person examined” value [1]?
A: The value was “high ray dose”.

Q: And the Tumor affinity [2]?
A: Its Tumor affinity is “low and uncertain tumor affinity”.

Q: Which “Human external tumor brain quotient (in vivo)” value (brain tumor [4]; literature sources 1-6 of Table 1, listed as 99mTcO.sbsb.4) does the source give for `[O]=[99Tc](=[O])(=[O])[O-]` [Example 99mTcO4, ^99m Tc-pertechnetate] here?
A: Its value is 1.7 : 1 and 1.3 : 1 and 1.2 - 2.5 : 1.

Q: What about the “Human internal tumor brain quotient (after autopsy or on an operation preparation)” value (brain tumor [5]) of the same compound?
A: Its value is 1.8 - 5.3 : 1.

Q: What about the “Human internal tumor brain quotient (after autopsy or on an operation preparation)” value (brain tumor [5]; listed as 99mTcO) of the same compound?
A: The value was 0 - 4.3 : 1.

Q: What about the “Ray dose of the critical organs: Blood” value ([1]; Blood, hitherto used substances) of the same compound?
A: The value was 17 - 47 mrad/mCurie.

Q: What about the “Ray dose of the critical organs: Colon” value ([1]; Colon, hitherto used substances) of the same compound?
A: Its value is 150 - 290 mrad/mCurie.

Q: What about the “Ray dose of the critical organs: Stomach” value ([1]; Stomach, hitherto used substances) of the same compound?
A: Its value is 40 - 320 mrad/mCurie.

Q: What about the “Ray dose of the critical organs: Thyroid” value ([1]; Thyroid, hitherto used substances) of the same compound?
A: The value was 100 - 270 mrad/mCurie.

Q: What about the Concentration in organs ([6]; listed as 99m Tc-pertechnetate) of the same compound?
A: The Concentration in organs was “particularly high concentrations occur in the thyroid but also in the plexus chorioideus (brain), in the salivary glands and in the gastric mucosa”.

Q: What about the Concentration in organs ([6]; listed as pertechnetate) of the same compound?
A: Its Concentration in organs is “concentrates above all in the thyroid”.

Q: What does the source list for `O=C([O-])CC(O)(CC(=O)[O-])C(=O)[O-].[67Ga+3]` [^67 Gallium citrate]?
A: Ray dose for the person examined [1]: high ray dose; Tumor affinity [2]: low and uncertain tumor affinity

— patent US4113850A, “Composition for the diagnostic visualization of neoplastic tissues” (Solco Basel AG, priority 1974, dated 1978)
